Reference: publication PMC9598367, “Discovery and Preliminary Structure-Activity Investigation of 3-Substituted-1H-imidazol-5-yl-1H-indoles with In Vitro Activity towards Methicillin-Resistant Staphylococcus aureus” (Antibiotics, 2022)
Converted amounts (≈) assume the structure as drawn. “Also recorded” adds a separate entry of the source.

Experiments:
human red blood cells = experiment: Hemolytic assay; type: cell-based; settings: for HC10: concentration at 10% hemolytic activity on human red blood cells, mean (n = 2); for hemolytic activity (in words): human red blood cells, result in words
Protocol: Human whole blood was washed three times with 3 volumes of 0.9% NaCl and then resuspended in same to a concentration of 0.5 × 10^8 cells/mL, as determined by manual cell count in a Neubauer hemocytometer. The washed cells were then added to the 384-well compound-containing plates for a final volume of 50 μL. After a 10 min shake on a plate shaker the plates were then incubated for 1 h at 37 °C. After incubation, the plates were centrifuged at 1000 g for 10 min to pellet cells and debris, 25 μL of the supernatant was then transferred to a polystyrene 384-well assay plate. Hemolysis was determined by measuring the supernatant absorbance at […] (OD405). The absorbance was measured using a Tecan M1000 Pro monochromator plate reader. HC10 and HC50 (concentration at 10% and 50% hemolysis, respectively) were calculated by curve fitting the inhibition values vs. log(concentration) using a sigmoidal dose–response function with variable fitting values for top, bottom and slope.

[1] = HEK293 cytotoxicity assay (resazurin); type: cell-based, human; settings: human; concentration at 50% cytotoxicity on HEK293 cells; mean (n = 2)
Protocol: (§1) For the HEK293 cytotoxicity assay, cells were counted manually in a Neubauer hemocytometer and plated at a density of 5000 cells/well into each well of the 384-well plates containing the 25× (2 μL) concentrated compounds. The medium used was Dulbecco’s modified eagle medium (DMEM) supplemented with 10% fetal bovine serum (FBS). Cells were incubated together with the compounds for 20 h at 37 °C, 5% CO2. To measure cytotoxicity, 5 μL (equals 100 μM final) of resazurin was added to each well after incubation, and incubated for further 3 h at 37 °C with 5% CO2. After final incubation fluorescence intensity was measured as Fex 560/10 nm, em 590/10 nm (F560/590) using a Tecan M1000 Pro monochromator plate reader. CC50 values (concentration at 50% cytotoxicity) were calculated by normalizing the fluorescence readout, with 74 μg/mL tamoxifen as negative control (0%) and normal cell growth as positive control (100%). The concentration-dependent percentage cytotoxicity was fitted to a dose response function (using Pipeline Pilot) and CC50 values determined.

[2] = system: Cryptococcus neoformans ATCC208821; experiment: Antifungal MIC, C. neoformans; type: cell-based; settings: for MIC: Cryptococcus neoformans ATCC208821, mean (n = 2); for antifungal activity towards C. neoformans (in words): result in words
Protocol: For the antifungal assay, fungi strains were cultured for 3 days on yeast extract-peptone dextrose (YPD) agar at 30 °C. A yeast suspension of 1 × 10^6 to 5 × 10^6 CFU/mL was prepared from five colonies. These stock suspensions were diluted with yeast nitrogen base (YNB) (Becton Dickinson, 233520) broth to a final concentration of 2.5 × 10^3 CFU/mL. The compounds were serially diluted 2-fold across the wells of 96-well plates (Corning 3641, nonbinding surface), with compound concentrations ranging from 0.015 to 64 μg/mL and final volumes of 50 μL, plated in duplicate. Then, 50 μL of the fungi suspension that was previously prepared in YNB broth to the final concentration of 2.5 × 10^3 CFU/mL was added to each well of the compound-containing plates, giving a final compound concentration range of 0.008 to 32 μg/mL. Plates were covered and incubated at 35 °C for 36 h without shaking. C. albicans MICs were determined by measuring the absorbance at OD530. For C. neoformans, resazurin was added at 0.006% final concentration to each well and incubated for a further 3 h before MICs were determined by measuring the absorbance at OD570–600.
(§2) Colistin and vancomycin were used as positive bacterial inhibitor standards for Gram-negative and Gram-positive bacteria, respectively. Fluconazole was used as a positive fungal inhibitor standard for C. albicans and C. neoformans. The antibiotics were provided in 4 concentrations, with 2 above and 2 below its MIC value, and plated into the first 8 wells of column 23 of the 384-well NBS plates. The quality control (QC) of the assays was determined by the antimicrobial controls and the Z′-factor (using positive and negative controls).

[3] = system: Staphylococcus aureus ATCC25923; experiment: MIC by broth dilution, S. aureus ATCC25923; type: cell-based; settings: for MIC: Staphylococcus aureus ATCC25923, mean (n = 3)
Protocol: The susceptibility of S. aureus (ATCC25923) to antibiotics and compounds was determined in microplates using the standard broth dilution method in accordance with the recommendations of the Comité de l’AntibioGramme de la Société Française de Microbiologie (CA-SFM) as previously described. Briefly, the minimal inhibitory concentrations (MICs) were determined with an inoculum of 10^5 CFU in 200 µL of Mueller-Hinton broth (MHB) containing two-fold serial dilutions of each drug. […] To determine all MICs, the measurements were independently repeated in triplicate.

[4] = system: Staphylococcus aureus ATCC43300 (MRSA); experiment: MIC, MRSA ATCC43300 (CO-ADD protocol); type: cell-based; settings: for MIC: Staphylococcus aureus, Staphylococcus aureus ATCC43300 (MRSA), mean (n = 2), read-out: MIC (µg/mL) MRSA; for anti-MRSA activity (in words): result in words
Description: Additional antimicrobial evaluation against Staphylococcus aureus MRSA (ATCC43300), Pseudomonas aeruginosa (ATCC27853), Escherichia coli (ATCC25922), Klebsiella pneumoniae (ATCC700603), Acinetobacter baumannii (ATCC19606), Candida albicans (ATCC90028), and Cryptococcus neoformans (ATCC208821) was undertaken at the Community for Open Antimicrobial Drug Discovery at The University of Queensland (Australia) according to their standard protocols. For antimicrobial assays, the tested strains were cultured in either Luria broth (LB) (In Vitro Technologies, USB75852, Noble Park North, Australia), nutrient broth (NB) (Becton Dickson, 234000, Macquarie Park, Australia), or cation-adjusted MHB at 37 °C overnight. A sample of culture was then diluted 40-fold in fresh MHB and incubated at 37 °C for 1.5−2 h. The compounds were serially diluted 2-fold across the wells of 96-well plates (Corning 3641, Tewksbury, MA, USA, nonbinding surface), with compound concentrations ranging from 0.015 to 64 μg/mL, plated in duplicate. The resultant mid log phase cultures were diluted to the final concentration of 1 × 10^6 CFU/mL; then, 50 μL was added to each well of the compound containing plates giving a final compound concentration range of 0.008 to 32 μg/mL and a cell density of 5 × 10^5 CFU/mL. All plates were then covered and incubated at 37 °C for 18 h. Resazurin was added at 0.001% final concentration to each well and incubated for 2 h before MICs were read by eye.
as §2

S. aureus (ATCC25923) = experiment: Membrane depolarization assay, DiSC3(5); type: cell-based, Staphylococcus aureus; settings: preliminary investigation; result in words
Protocol: S. aureus (ATCC25923) was grown in MH II broth for 24 h at 37 °C. After reaching an OD600 nm of 0.5, cells were centrifuged (3600× g for 20 min at 20 °C) and washed twice with buffered sucrose solution (250 mM), magnesium sulfate solution (25 mM) and Hepes (5 mM) (pH = 7.2). The fluorescent dye […] DiSC3(5) was added to a final concentration of 5 µM and was incubated with the suspensions for 5 min at 37 °C to allow the dye incorporation into the polarized membranes. 10 µL of compound was then added to 90 µL of the fluorescent suspensions at different concentrations ranging from 200 µM to 25 µM. Fluorescence measurements were recorded for 20 minutes (excitation wavelength 622 nm, emission wavelength 690 nm).
The difference in the relative fluorescence values (RFU) from the control containing only buffer and the control containing bacteria treated only with cetyltrimethylammonium bromide ([…]) is taken as the maximum level of depolarization. Assays were performed in three independent experiments. Blank determined by using no compound. Maximum RFU determined by using CTAB 0.1%
Equation used: (RFU of the compound−RFU of the blank)×100/RFU of the maximum

[5] = system: HEK293 human embryonic kidney cells; experiment: HEK293 cytotoxicity assay (resazurin); type: cell-based; settings: HEK293; result in words
Protocol: as §1

Fc1ccc2c(-c3cncn3Cc3ccc(I)cc3)c[nH]c2c1 [Compound 6, 6-Fluoro-3-(1-(4-iodobenzyl)-1H-imidazol-5-yl)-1H-indole]
HC10 (human red blood cells): >32 µg/mL | CC50 at 20 h [1]: 15.6 µg/mL (≈ 37.4 µM) | MIC [2]: 32 µg/mL (≈ 76.7 µM) | melting point: 191 to 192 °C | MIC [3]: 6.25 µg/mL (≈ 15 µM) | activity against S. aureus (in words) ([3]; result in words): strong activity | MIC [4]: > 32 µg/mL | membrane depolarization of S. aureus (S. aureus (ATCC25923)): only very weak membrane depolarization

COc1ccc(CCn2cncc2-c2c[nH]c3ccc(Cl)cc23)cc1 [Compound 26, 5-Chloro-3-(1-(4-methoxyphenethyl)-1H-imidazol-5-yl)-1H-indole]
HC10 (human red blood cells): >32 µg/mL | hemolytic activity (in words) (human red blood cells): lacked cytotoxic or hemolytic properties | cytotoxicity (in words) [5]: lack of cytotoxicity; also recorded: lacked cytotoxic or hemolytic properties | CC50 at 20 h [1]: > 32 µg/mL | MIC [2]: > 32 µg/mL | MIC [3]: > 200 µg/mL | MIC [4]: ≤ 0.25 µg/mL | anti-MRSA activity (in words) [4]: promising non-toxic selective anti-MRSA compounds

COc1ccc(OC)c(CCn2cncc2-c2c[nH]c3ccc(Cl)cc23)c1 [Compound 32, 5-Chloro-3-(1-(2,5-dimethoxyphenethyl)-1H-imidazol-5-yl)-1H-indole]
HC10 (human red blood cells): >32 µg/mL | hemolytic activity (in words) (human red blood cells): lacked cytotoxic or hemolytic properties | cytotoxicity (in words) [5]: lack of cytotoxicity; also recorded: lacked cytotoxic or hemolytic properties | CC50 at 20 h [1]: > 32 µg/mL | MIC [2]: > 32 µg/mL | MIC [3]: 100 µg/mL (≈ 262 µM) | anti-MRSA activity (in words) [4]: promising non-toxic selective anti-MRSA compounds

COc1ccc2c(-c3cncn3CCc3ccccc3)c[nH]c2c1 [Compound 57, 6-Methoxy-3-(1-phenethyl-1H-imidazol-5-yl)-1H-indole]
HC10 (human red blood cells): >32 µg/mL | hemolytic activity (in words) (human red blood cells): lack of cytotoxicity and hemolytic activity | cytotoxicity (in words) [5]: lack of cytotoxicity and hemolytic activity | CC50 at 20 h [1]: > 32 µg/mL | MIC [2]: ≤ 0.25 µg/mL | antifungal activity towards C. neoformans (in words) [2]: non-toxic selective antifungals | melting point: 48 to 49 °C | MIC [3]: > 200 µg/mL | MIC [4]: > 32 µg/mL

c1ccc(-c2cncn2Cc2c[nH]c3ccccc23)cc1 [Compound 111, 3-((5-Phenyl-1H-imidazol-1-yl)methyl)-1H-indole]
HC10 (human red blood cells): >32 µg/mL | hemolytic activity (in words) (human red blood cells): lack of cytotoxicity and hemolytic activity | cytotoxicity (in words) [5]: lack of cytotoxicity and hemolytic activity | CC50 at 20 h [1]: > 32 µg/mL | MIC [2]: ≤ 0.25 µg/mL | antifungal activity towards C. neoformans (in words) [2]: non-toxic selective antifungals | melting point: 57 to 58 °C | MIC [3]: 50 µg/mL (≈ 183 µM) | MIC [4]: 16 µg/mL (≈ 58.5 µM)
